Results reported in US20220133702A1, “CYSTIC FIBROSIS TRANSMEMBRANE CONDUCTANCE REGULATOR MODULATORS FOR TREATING AUTOSOMAL DOMINANT POLYCYSTIC KIDNEY DISEASE” (The Johns Hopkins University, priority 2020, published 2022).
Entries after “also recorded” stand apart in the source; their conditions may differ.

Experiments:
[1] = tested on: PC2 in PN cells; assay: Western blot of endogenous PC2; type: cell-based, mouse
Procedure: FIG. 6A and FIG. 6B show PC2 expression is unchanged by VX-809. (FIG. 6A) Western blot showing expression of PC2 in treated or control cells. (FIG. 6B) Columns represent the means±SEM of the PC2 expression. The data were analyzed by non-parametric t-test. The experiment was repeated six (control) or seven times;
PC2 is a 968-amino acid protein with an approximate molecular weight of 100 kDa in its monomeric form To determine whether VX-809 affects PC2 protein expression, western blot experiments were conducted on PN cells to determine the resting levels of endogenous PC2. The results indicated (FIG. 6) that VX-809 has no effect on PC2 expression.

[2] = tested on: PC2; assay: Confocal localization of PC2 with ER, Golgi and PM markers; type: cell-based; settings: treated vs control cells, Pearson's correlation with markers
Description: FIG. 17A and FIG. 17B show images of confocal microscopy localization studies of PC2 and localization markers in control and treated cells (FIG. 17A) and graphs showing Pearson's correlation coefficient for PC2 and localization markers in control and VX-809 treated cells (FIG. 17B).
The localization of PC2 and CFTR in control cells was compared to the localization of PC2 and CFTR localization in VX-809 treated cells.

[3] = tested on: PC2 in Pkd1^fl/fl; Pax8^rtTA; TetO-cre mice; assay: Immunoblot of PC2 protein in kidney tissue, PC1-null model; type: in vivo, mouse; settings: doxycycline plus VX-809
Procedure: The levels of PC2 protein were analyzed in two mouse models of ADPKD: Pkd1^fl/fl; Pax8^rtTA; TetO-cre, which is PC1 null, and the Pkd1^R3277C/R3277C (pkd1^RC/RC) which has a missense mutation in PC1. Pkd1^RC/RC mice develop a consistent, slowly progressing polycystic kidney disease. Pkd1^RC/RC mice were treated daily with VX-809, beginning at one month, and euthanized at 6 months.
Mice were treated without doxycycline (ND), with doxycycline plus DMSO (D), or with doxycycline plus VX809 (D+VX809), as indicated. Three mice were analyzed for each treatment.
In the Pkd1^fl/fl mice, doxycycline-induced cyst formation increases PC2 protein.

[4] = tested on: PN (pkd1-null) cells; assay: In vitro cystogenesis (3D Matrigel culture, cyst size by cross-sectional area); type: cell-based, mouse
Procedure: Cells were treated with DMSO (control), VX-809, or C18 (10 μM) plus or minus forskolin on Days 0, 2, 4, 6, 8, 10, 12, 14. […] Cells were treated with DMSO (control), C18 or VX-809 (10 μM) from 9-16 (7) days. All pictures were taken on Day 16. Columns represent means±SEM (n=6). The average cyst size from the control group was considered 100%, and the sizes of the rest of the cysts were compared with this average. ****P<0.0001. Cyst size was estimated from the cross-sectional area;
VX-809 Reduces Cyst Growth in Vitro Experiments were conducted using a model ADPKD cell line (PH=pkd1+/− heterozygote control; PN=pkd−/− knockout), clonally isolated from single parental clones obtained from a pkdf1/− mouse that was manufactured in an ImmortoMouse containing the H-2Kb-tsA58 gene. The null cells (PN) stably express the Cre recombinase. All the cells proximal tubule origin. To determine how VX-809 reduces cyst growth, cysts were grown in the presence of forskolin (FIG. 2). […] Taken together with the animal data provided in FIG. 1, these in vitro results clearly indicate that CFTR correctors are effective in reducing cyst growth.
In vitro cytogenesis. To induce differentiation, cells were kept at 37° C. for at least 6 days without gamma-interferon. After one week, the cells were used for 3D culture or other experiments. Growth factor-reduced Matrigel #354230 (Corning) was used, and cell dilutions were prepared so that there were approximately 6,000 cells in 25 μl of medium; 25 μl of cell preparation was mixed with 50 μl of Matrigel. Pictures were taken with a Zeiss Axio microscope. Cystic areas were analyzed with ImageJ (provided by the NIH).

[5] = tested on: HSP27, 70, 90 and HSP40; assay: Western blot of heat shock proteins in kidney tissue lysates; type: in vivo; settings: 30 mg/kg BW, cyst-induced mouse kidneys
Procedure: FIG. 7A, FIG. 7B, FIG. 7C, FIG. 7D, FIG. 7E, and FIG. 7F show chaperone expression is altered in mice by VX-809. (FIG. 7A-FIG.7B) Representative Western blot images of HSP27, 70, 90 and HSP40 in lysates of kidney tissue from no cyst induced (ND), cyst induced with Doxycycline (D) or cyst induced pkd−/− mice treated with VX-809 (D+VX-809) 30 mg/kg BW. (FIG. 7C, FIG. 7D, FIG. 7E, and FIG. 7F). Columns represent averages±standard errors of HSP27, 70, 90 and HSP40 expression. Data were analyzed by non-parametric t-test. n=4 for each treated and control groups. Black lines between lanes represent representative experiments from the same gel. *P<0.05; **P<0.01;
To facilitate their growth in the kidney, cysts have developed an altered network of proteins that most likely serves to protect them from stress . Next, it was determined whether VX-809 would alter the levels of Hsps in pkd−/− mice and in PN cells. […] Hsp 27, 70 and 90 are all elevated in cystic kidneys compared to normal controls. […] There is no change in Hsp40. […] Both sets of data are consistent with an alteration in the heat shock response to cyst growth.

[6] = tested on: PN cells; assay: BrdU cell proliferation assay; type: cell-based, mouse; settings: 1 and 10 μM, vs DMSO-treated cells
Description: FIG. 3A, FIG. 3B, FIG. 3C, and FIG. 3D show cell proliferation is reduced by VX-809. (FIG. 3A-FIG. 3B) Proliferation in kidneys of Pkd1^fl/fl; Pax8^rtTA; TetO-cre mice. Representative images of Ki67 (a cellular marker for proliferation) staining of PN21 kidney sections from DMSO- and VX-809-treated mice. Arrows indicate Ki67-positive cells. Pictures were acquired with a Zeiss microscope equipped with 20× objective. (FIG. 3C) Summary data for Ki67-positive cells. Columns represent averages±standard errors of DMSO (vehicle)-treated (n=3) and VX-809-treated (n=3) mice. Statistical analysis was performed using a two-tailed Student's t test. (FIG. 3D) Proliferation in PN cells. PN cells were treated with VX-809 or DMSO). The bromodeoxyuridine (BrdU) concentration in the cells was measured by using a BrdU cell proliferation assay kit (Millipore Sigma#2750) according to the manufacturer's protocol. Columns represent averages±SEs of the OD of BrdU at 450/550 […]. Data were analyzed using Student's t-test, with n=5-7. Methods were described previously (62). *P>0.05; **P<0.01;
A hallmark of the cysts in ADPKD is an increase in proliferation in response to cAMP. Therefore, it was determined whether VX-809 would affect proliferation.

Q: How did the PC2 expression [1] turn out when `Cc1ccc(NC(=O)C2(c3ccc4c(c3)OC(F)(F)O4)CC2)nc1-c1cccc(C(=O)O)c1` [VX-809, lumacaftor] was run?
A: Its PC2 expression is “no effect”.

Q: What about the PC2 localization [2] of the same molecule?
A: Its PC2 localization is “statistically significant move of PC2 from the ER to Golgi”.

Q: What about the “PC2 protein expression (normalized to vinculin)” value [3] of the same molecule?
A: The value was “restores PC2 expression to near-normal values”.

Q: What about the “size of established cysts” value ([4]; 10 μM from Days 9-16, in the presence of forskolin) of the same molecule?
A: The value was “reduces the size of established cysts”.

Q: And the cyst growth ([4]; 10 μM on Days 0, 2, 4, 6, 8, 10, 12, 14, plus or minus forskolin)?
A: Its cyst growth is “reduce cyst growth equally well; also recorded: inhibits cyst growth”.

Q: What about the cyst size ([4]; every other day or Days 9-16, in the presence of forskolin) of the same molecule?
A: Its cyst size is “dramatically reducing cyst size”.

Q: And the Hsp27 expression [5]?
A: The Hsp27 expression was “significantly less expression”.

Q: What about the Hsp40 expression [5] of the same molecule?
A: Its Hsp40 expression is “no change”.

Q: What about the Hsp70 expression [5] of the same molecule?
A: The Hsp70 expression was “significantly less expression”.

Q: And the Hsp90 expression [5]?
A: The Hsp90 expression was “significantly less expression”.

Q: What about the “cell proliferation (BrdU)” value [6] of the same molecule?
A: The value was “significantly inhibit cell proliferation”.
